# Laboratory results published in US20240352066A1, “ANTIMICROBIAL COMPOUNDS AND THE METHOD OF USE” (priority 2021, published 2024).
# Where a SMILES comes first, the peptide text is derived from it. [ ]: non-standard residue; d: D form. NCyclohexylmethylGly = O=C(O)CNCC1CCCCC1; N(tridecyl)Gly = CCCCCCCCCCCCCNCC(=O)O; Gly(N-2-aminoethyl) = NCCNCC(=O)O; Gly(N-cHex) = O=C(O)CNC1CCCCC1; Gly(N-cPent) = O=C(O)CNC1CCCC1; N(iPr)Gly = CC(C)NCC(=O)O; NPhGly = O=C(O)CNc1ccccc1; NHexGly = CCCCCCNCC(=O)O; Nlys = NCCCCNCC(=O)O
# What was measured:
# [1] = test system: HepG2 hepatocellular carcinoma cells; assay: Mammalian cytotoxicity, MTT, HepG2; format: cell-based, human
# Method: (§1) Hepatocellular carcinoma (HepG2), mouse fibroblast (3T3), human lung (HPL1A), and human keratinocyte (HaCat) cells were cultured in Dulbecco modified eagle media (DMEM) containing 10% fetal bovine serum (FBS) and 1% penicillin, streptomycin, and glutamine (PSG) at 37° C. and 5% CO2. Cells were collected and adjusted to […] to 4×10^5 cells/mL in phenol-red free DMEM and plated (100 μL) 96 well plates. 2-fold serial dilutions of 10× peptoid (11.1 μL) were added to each well in triplicate. Water (vehicle) was used as a negative control. Plates were incubated at 37° C. in 5% CO2 for 72 hours. Thiazolyl blue tetrazolium bromide (MTT) was added to each well (5 mg/mL; 20 μL) and incubated for 3 hours. Media was removed, DMSO (100 μL) was added, and plates were incubated at 37° C. for 10 minutes. Plates were read on a SpectraMax M5 plate reader (Abs. 570 nm). The concentration of compound resulting in a 50% reduction in growth compared to control (toxicity dose 50%; TD50) was determined using GraFit. This procedure was repeated three times on separate days.
# (§2) Cytotoxicity against HepG2 hepatocellular carcinoma cells was done as previously described (Green et al. ACS infectious diseases, (2022); Corson et al. ACS medicinal chemistry letters 7 12, 1139-1144 (2016)). HepG2 cells were maintained in culture in T-75 flasks using Dulbecco's Modified Eagle's Media (DMEM) with phenol red pH indicator and supplemented with 10% fetal bovine serum (FBS) and 1% penicillin, streptomycin, and glutamine (PSG). The cells were incubated at 37° C. and 5% CO2 in a humidified incubator until desired confluency was achieved. The media was removed from the flask, and the cells were washed 1× with 10 mL of phosphate-buffered saline (PBS; 11.8 mM phosphate, 140.4 mM NaCl; pH 7.4) which was then discarded. To remove the adhered cells from the flask, 2 mL of trypsin was added, and the cells were incubated for 10 minutes. To quench the trypsin, 8 mL of phenol red-free DMEM with 10% FBS and 1% PGS was added, and the cell solution was transferred to a 15 mL conical tube. After the cells were pelleted by centrifugation at 1000 rpm for 5 minutes, the supernatant was poured off and cells resuspended in the volume of phenol red-free media needed for the assay. Cell concentration was determined by counting with a hemocytometer, and the solution was diluted with media until a concentration of 1×10^5 cells/mL was achieved. A 100 μL aliquot of cell solution was added to each well of a 96-well plate, apart from the 3 wells used for a media control. Cells were incubated for 2-3 hours at 37° C. and 5% CO2 until cells were adherent.
# (§3) Compound stocks of 20 mg/mL were used to prepare 2-fold serial dilutions of each compound in sterile water, giving final concentrations of 200, 100, 50, 25, 12.5, 6.25, 3.13 and 1.56 μg/mL. 11.1 μL of prepared compound solutions was added to the appropriate wells in triplicate. A negative vehicle control of sterile water, as well as the aforementioned media control, were used. The plates were incubated for 72 hours at 37° C. and 5% CO2. After incubation, 20 μL of 5 mg/mL 3-(4,5-dimethylthiazol-2-yl)-2,5-diphenyltetrazolium bromide (MTT) in water was added to each well. The plate was incubated for 3 hours at 37° C. and 5% CO2. Media was removed from each well using a sterile glass Pasteur pipette. 100 μL of DMSO was added to each well and incubated for 15 minutes at 37° C. Absorbance was read at 570 nm using a SpectraMax M5 Plate Reader. This MTT assay was performed in biological duplicate unless discrepant results were observed. If this was the case, the assay was performed in biological triplicate for further verification. The reported value is the average of biological replicates with standard deviation.
# [2] = Mammalian cytotoxicity, MTT, HepG2; format: cell-based, human; conditions: human, HepG2 hepatocellular carcinoma cells
# Method: as §1, §2, §3
# C. neoformans [3] = format: cell-based, Cryptococcus neoformans; conditions: 72 h
# Method: The minimum inhibitory concentration (MIC) of peptoids against fungal pathogens C. albicans and C. neoformans was determined following CLSI guidelines (CLSI. Reference method for broth dilution antifungal susceptibility testing of yeasts; approved standard-third edition; CLSI document M27-A3. (Clinical and Laboratory Standards Institute, 2008). […] This inoculant was diluted 1:100 into RPMI-MOPS and then further diluted 1:20 into RPMI-MOPS. 198 μL of inoculant was seeded into each well of a 96 well black-walled plate. 2-fold serial dilutions of 100× peptoid solutions were prepared in water and 2 μL of peptoid were added to each well in triplicate. […] MIC was defined as the lowest concentration of compound preventing fungal growth. This assay was repeated 3 times on separate days with each compound. […] The addition of 0.1 mL cell solution to 9.9 mL of RPMI-MOPS produced a 1:100 cell solution. After vortexing, 0.5 mL of the […] was added to 9.5 mL RPMI-MOPS to produce a 1:20 cell solution. 198 μL of the 1:20 solution was added to the wells of an opaque 96-well plate, apart from the wells designated for the medial control. […] Amphotericin B was used as a positive control, and sterile water was used for the vehicle control. The plates were incubated for 72 hours at 35° C. After incubation, the concentration of compound resulting in no visual growth was recorded as the MIC. All assays performed in biological triplicate on different days.
# [4] = Percent acetonitrile at elution during RP-HPLC purification (hydrophobicity); format: physicochemical; conditions: percent acetonitrile at the time of elution from HPLC
# From the text: All RMG8-8 derivatives were synthesized via the solid-phase submonomer synthesis method on polystyrene Rink Amide resin (Zuckermann et al. Journal of the American Chemical Society 114, 10646-10647 (1992)). The amines used during synthesis and the peptoid shorthand notations for each monomer are provided in Table 7 and Table 8, respectively. Compounds were purified to greater than 95% by RP-HPLC and compound identity was confirmed by ESI-TOF MS (Table 9). The calculated distribution coefficient at pH 7.4 (c Log D7.4) (via Chemaxon. MarvinSketch 19.17.0, 2019) and the percent acetonitrile at the time of elution during HPLC purification were recorded and serve as measures of hydrophobicity (Table 10). Higher values for c Log D7.4 and percent acetonitrile are indicators of increased compound hydrophobicity. With antimicrobial peptoids, hydrophobicity is directly related to both antimicrobial activity and cytotoxicity (Andreev et al. Biochimica et biophysica acta. Biomembranes 1860 6, 1414-1423 (2018); Bolt et al. Med chem comm 8, 886-896 (2017); Frederiksen et al. Molecules 24, (2019)). The ideal balance of these parameters generally must be determined experimentally. To measure antifungal activity, the minimum inhibitory concentration (MIC), defined as the concentration of compound required to inhibit 90% of fungal growth, was determined against C. neoformans using the broth microdilution method. Mammalian cytotoxicity was evaluated through a cell metabolic activity assay with HepG2 liver carcinoma cells, and select, potentially promising compounds were tested for unwanted hemolytic activity against human red blood cells.
# Peptoids were purified via Reversed-Phase High-Performance Liquid Chromatography (RP-HPLC) using a Varian Prepstar SD-1. A gradient of 0-100% water to acetonitrile containing 0.05% TFA made up the mobile phase, and a Supelco Ascentis C18 column (5 μm; 25 cm×21.2 mm; Sigma-Aldrich 581347-U) was used as the stationary phase. Peaks in the chromatogram above 0.1 AU were collected and analyzed via mass spectrometry. The peak product with the desired peptoid was dried down in vacuo and lyophilized overnight. Peptoids were then reconstituted in sterile […] deionized water to create compound stocks of 20 mg/mL.
# C. neoformans [5] = assay: microbe, parasite or virus in culture; format: cell-based, Cryptococcus neoformans
# Method: Cell solution was diluted into RPMI-MOPS (1:100) followed by another dilution into RPMI-MOPS (1:20). […] Plates were incubated for 72 hours at 35° C. MIC was determined as the lowest concentration of individual compound or combined compounds inhibiting pathogen growth. Fractional inhibitory concentration index (FICi) was determine using the following equation: FICi values were interpreted as follows: FICi<0.5 synergistic; 0.5≤FICi≤4 indifferent; FICi>4 antagonist (Johnson et al., Antimicrob. Agents Chemother. 48, 693-715 (2004)).
SMILES,C. neoformans MIC (C. neoformans [3]),% ACN [4],"Combination MIC RMG8-8:Drug, RMG8-8 part (C. neoformans [5]; RMG8-8 concentration in combination with the named drug)","MIC (compound alone) (C. neoformans [5]; checkerboard, 72 hours at 35° C.)","Combination MIC RMG8-8:Drug, Drug part (C. neoformans [5]; drug concentration in combination with RMG8-8)",HepG2 TD50 [1],CC50 at 72 h [2],"interpretation of combination with RMG8-8 (C. neoformans [5]; FICi<0.5 synergistic, 0.5≤FICi≤4 indifferent, FICi>4 antagonist)",FICi (C. neoformans [5]; named drug in combination with RMG8-8)
CCCCCCCCCCCCCNCC(=O)N(CC(=O)N(CCCCN)CC(=O)N(CCN)CC(=O)N(CC(N)=O)C1CCCC1)C1CCCC1 [Compound 11] (H-[N(tridecyl)Gly][Gly(N-cPent)][Nlys][Gly(N-2-aminoethyl)][Gly(N-cPent)]-NH2),6.25 µg/mL,68.1%,,,,greater than 200 μg/mL,> 200 µg/mL,,
CCCCCCCCCCCCCNCC(=O)N(CC(=O)N(CCCCN)CC(=O)N(CCN)CC(=O)N(CC(N)=O)c1ccccc1)c1ccccc1 [Compound 14] (H-[N(tridecyl)Gly][NPhGly][Nlys][Gly(N-2-aminoethyl)][NPhGly]-NH2),1.56 to 3.13 µg/mL,67.7%,,,,,81 ± 25 µg/mL,,
CCCCCCCCCCCCCNCC(=O)N(CCCCCC)CC(=O)N(CCCCN)CC(=O)N(CCN)CC(=O)N(CCCCCC)CC(N)=O [Compound 10] (H-[N(tridecyl)Gly][NHexGly][Nlys][Gly(N-2-aminoethyl)][NHexGly]-NH2),1.56 to 3.13 µg/mL,73.3%,,,,,61 ± 9 µg/mL,,
CCCCCCCCCCCCCNCC(=O)N(CC(=O)N(CCCCN)CC(=O)N(CCN)CC(=O)N(CC(N)=O)C(C)C)C(C)C [Compound 8] (H-[N(tridecyl)Gly][N(iPr)Gly][Nlys][Gly(N-2-aminoethyl)][N(iPr)Gly]-NH2),25 µg/mL,66.7%,,,,greater than 200 μg/mL,> 200 µg/mL,,
CCCCCCCCCCCCCNCC(=O)N(CC(=O)N(CCCCN)CC(=O)N(CCN)CC(=O)N(CC(N)=O)CC1CCCCC1)CC1CCCCC1 [Compound 12] (H-[N(tridecyl)Gly][NCyclohexylmethylGly][Nlys][Gly(N-2-aminoethyl)][NCyclohexylmethylGly]-NH2),1.56 to 3.13 µg/mL,71.4%,,,,,62 ± 3 µg/mL,,

# More lines, main results first:
C. neoformans MIC (C. neoformans [3]),% ACN [4],"Combination MIC RMG8-8:Drug, RMG8-8 part (C. neoformans [5]; RMG8-8 concentration in combination with the named drug)","MIC (compound alone) (C. neoformans [5]; checkerboard, 72 hours at 35° C.)","Combination MIC RMG8-8:Drug, Drug part (C. neoformans [5]; drug concentration in combination with RMG8-8)",SMILES,HepG2 TD50 [1],CC50 at 72 h [2],"interpretation of combination with RMG8-8 (C. neoformans [5]; FICi<0.5 synergistic, 0.5≤FICi≤4 indifferent, FICi>4 antagonist)",FICi (C. neoformans [5]; named drug in combination with RMG8-8)
12.5 µg/mL,,,,,CCCCCCCCCCCCCNCC(=O)N(CC(=O)N(CCCC[N+](C)(C)C)CC(=O)N(CC[N+](C)(C)C)CC(=O)N(CC(N)=O)C1CCCCC1)C1CCCCC1 [Compound 1],> 200 µg/mL,> 200 µg/mL,,
3.13 µg/mL,69.3%,,,,CCCCCCCCCCCCCNCC(=O)N(CCCCN)CC(=O)N(CC(=O)N(CC(=O)N(CCN)CC(N)=O)C1CCCCC1)C1CCCCC1 [Compound 3] (H-[N(tridecyl)Gly][Nlys][Gly(N-cHex)][Gly(N-cHex)][Gly(N-2-aminoethyl)]-NH2),,105 ± 3.8 µg/mL,,
,,0.8 µg/mL,0.25 µg/mL,0.06 µg/mL,C[C@@H]1[C@H](O)[C@@H](C)/C=C/C=C/C=C/C=C/C=C/C=C/C=C/[C@H](O[C@@H]2O[C@H](C)[C@@H](O)[C@H](N)[C@@H]2O)C[C@@H]2O[C@](O)(C[C@@H](O)C[C@@H](O)[C@H](O)CC[C@@H](O)C[C@@H](O)CC(=O)O[C@H]1C)C[C@H](O)[C@H]2C(=O)O [Amphotericin B],,,mild additive effect,0.75
12.5 to 25 µg/mL,67.3%,,,,CCCCCCCCCCCCCNCC(=O)N(CC(=O)N(CCCCN)CC(=O)N(CCN)CC(=O)N(CC(N)=O)CC1CCCO1)CC1CCCO1 (centres unmarked) [Compound 13],greater than 200 μg/mL,> 200 µg/mL,,
